Results published in the supplement of paper PMC11451515.

System: NOMO1
Assay: cell viability relative to DMSO control; higher = less cytotoxic
Settings: 48 h
How it was run: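 Viability is expressed as a percentage of DMSO wells within each plate, and cell-free wells serve as background. Seeding densities in the 1536-well plates (5 μl) were 500 cells/well for NOMO1 or SEM leukemia cells and 1000 cells/well for P12-Ichikawa. Each line was adapted for at least four passages in each medium. Library compounds in DMSO were pin-dosed at 47 μM to 0.79 nM (11 points, threefold), and CellTiter-Glo One luminescence was read after 48 h at 37°C.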

[1] = HPLM + 10% dialyzed FBS, 0.000781 µM
[2] = HPLM + 10% dialyzed FBS, 0.00234 µM
[3] = HPLM + 10% dialyzed FBS, 0.00702 µM
[4] = HPLM + 10% dialyzed FBS, 0.0211 µM
[5] = HPLM + 10% dialyzed FBS, 0.0632 µM
[6] = HPLM + 10% dialyzed FBS, 0.19 µM
[7] = HPLM + 10% dialyzed FBS, 0.569 µM
[8] = HPLM + 10% dialyzed FBS, 1.71 µM
[9] = HPLM + 10% dialyzed FBS, 5.12 µM
[10] = HPLM + 10% dialyzed FBS, 15.4 µM
[11] = HPLM + 10% dialyzed FBS, 46.1 µM
[12] = RPMI 5 mM glucose + 10% FBS, 0.000781 µM
[13] = RPMI 5 mM glucose + 10% FBS, 0.00234 µM
[14] = RPMI 5 mM glucose + 10% FBS, 0.00702 µM
[15] = RPMI 5 mM glucose + 10% FBS, 0.0211 µM
[16] = RPMI 5 mM glucose + 10% FBS, 0.0632 µM
[17] = RPMI 5 mM glucose + 10% FBS, 0.19 µM
[18] = RPMI 5 mM glucose + 10% FBS, 0.569 µM
[19] = RPMI 5 mM glucose + 10% FBS, 1.71 µM
[20] = RPMI 5 mM glucose + 10% FBS, 5.12 µM
[21] = RPMI 5 mM glucose + 10% FBS, 15.4 µM
[22] = RPMI 5 mM glucose + 10% FBS, 46.1 µM
[23] = RPMI 5 mM glucose + 10% dialyzed FBS, 0.000781 µM
[24] = RPMI 5 mM glucose + 10% dialyzed FBS, 0.00234 µM
[25] = RPMI 5 mM glucose + 10% dialyzed FBS, 0.00702 µM
[26] = RPMI 5 mM glucose + 10% dialyzed FBS, 0.0211 µM
[27] = RPMI 5 mM glucose + 10% dialyzed FBS, 0.0632 µM
[28] = RPMI 5 mM glucose + 10% dialyzed FBS, 0.19 µM
[29] = RPMI 5 mM glucose + 10% dialyzed FBS, 0.569 µM
[30] = RPMI 5 mM glucose + 10% dialyzed FBS, 1.71 µM
[31] = RPMI 5 mM glucose + 10% dialyzed FBS, 5.12 µM
[32] = RPMI 5 mM glucose + 10% dialyzed FBS, 15.4 µM
[33] = RPMI 5 mM glucose + 10% dialyzed FBS, 46.1 µM

Structure (SMILES)	cell viability [1] [%]	cell viability [2] [%]	cell viability [3] [%]	cell viability [4] [%]	cell viability [5] [%]	cell viability [6] [%]	cell viability [7] [%]	cell viability [8] [%]	cell viability [9] [%]	cell viability [10] [%]	cell viability [11] [%]	cell viability [12] [%]	cell viability [13] [%]	cell viability [14] [%]	cell viability [15] [%]	cell viability [16] [%]	cell viability [17] [%]	cell viability [18] [%]	cell viability [19] [%]	cell viability [20] [%]	cell viability [21] [%]	cell viability [22] [%]	cell viability [23] [%]	cell viability [24] [%]	cell viability [25] [%]	cell viability [26] [%]	cell viability [27] [%]	cell viability [28] [%]	cell viability [29] [%]	cell viability [30] [%]	cell viability [31] [%]	cell viability [32] [%]	cell viability [33] [%]
CO[C@@H]1[C@@H](O)[C@H](O)[C@@H](n2c3c(Cl)cccc3c3c4c(c5c6cccc(Cl)c6[nH]c5c32)C(=O)NC4=O)O[C@H]1CO	103	116	106	103	105	107	89.6	21.6	30.5	25.7	18.3	93.3	91.3	106	105	86.7	86.4	91.7	16.7	20.3	19.3	16.4	84.7	103	89.9	98.5	90.8	99.9	87.2	20.7	21.3	22.6	19.7
Nc1nc(NCCNc2ncc(-n3ccnc3)c(-c3ccc(Cl)cc3Cl)n2)ccc1[N+](=O)[O-]	–	–	–	–	–	–	–	–	–	–	–	105	124	126	128	127	141	144	157	141	151	165	92.9	128	119	136	155	160	139	147	168	147	150
Cc1c(C(=O)c2cccc3ccccc23)c2cccc3c2n1[C@H](CN1CCOCC1)CO3	104	100	94.2	101	99.9	91	89.5	86.9	97.9	86.1	5.74	91.4	83.8	87.4	87.8	96.7	94.4	86.4	91	88.7	81.4	4.88	84.2	90	86.3	86.9	95.8	85.5	85.4	88.1	87.5	77.7	5.16
CC[C@H]1CN2CCc3cc(OC)c(OC)cc3[C@@H]2C[C@@H]1C[C@H]1NCCc2cc(OC)c(OC)cc21	95.5	105	101	107	104	98.5	54.7	22.7	8.84	10.8	7.47	103	127	122	109	121	111	50.4	27	11.4	9.75	8.48	106	102	98.3	123	118	109	47.5	27.8	14.9	9.41	8.82
OCCN(CCO)c1nc(N2CCCCC2)c2nc(N(CCO)CCO)nc(N3CCCCC3)c2n1	128	112	104	128	115	112	120	111	94.5	105	46.4	120	129	119	107	114	113	105	114	111	113	92.4	113	115	117	115	113	114	121	114	114	110	68
CC(C)Cn1cnc2c(N)nc3ccccc3c21	120	124	120	116	118	121	117	112	94.5	102	89.4	98.9	110	116	109	114	103	108	103	108	95.3	105	112	107	102	128	109	110	115	103	96	98.8	100
C[N+]1(C)[C@@H]2CC(OC(=O)C(O)(c3cccs3)c3cccs3)C[C@H]1[C@@H]1O[C@@H]12 (stereo partly drawn)	109	113	117	126	107	120	128	113	105	110	102	101	87.9	88.8	116	102	100	92.2	87.8	95.6	94.4	107	90.3	105	104	106	115	94.9	106	97.3	99.4	99	99.9
CN1CCC(CC1)=C2C3=C(C=CC=C3)\C=C/C4=C2C=CC=C4	98.6	118	113	130	133	141	147	133	121	124	93.4	–	–	–	–	–	–	–	–	–	–	–	–	–	–	–	–	–	–	–	–	–	–
Oc1ccc(-c2ccc(-c3cc(Nc4cccc(CNC5CC5)c4)[nH]n3)cc2)c(O)c1	93.9	104	108	116	127	116	102	93.4	41.4	40	60.6	104	99	103	97.4	115	109	114	96.7	49.5	27.8	30.8	99.3	94.4	106	109	107	102	119	107	71.1	26	31.1
CCOCC(O)COc1ccc(NC(=O)CC[S+](C)C)cc1 (stereo not drawn)	91.1	84.9	106	98.4	93.1	92.4	110	107	97	107	98.5	77.9	87.1	86.7	86.7	87.3	82.1	89.7	80.8	91	94.3	84.2	82.1	81.8	78.1	96.5	90.6	90.7	86.3	84.4	95.3	80.1	85.9
CCOC(=O)[C@H]1O[C@@H]1C(=O)N[C@@H](CC(C)C)C(=O)NCCC(C)C	–	–	–	–	–	–	–	–	–	–	–	114	107	107	117	123	116	114	104	102	92.2	12.6	114	112	121	126	106	121	113	109	102	112	15.1
CC(C)(O)C(=O)Nc1ccc([N+](=O)[O-])c(C(F)(F)F)c1	94.7	116	131	124	122	135	126	65.8	38	30.6	30.5	118	123	124	122	120	132	125	51.1	29	24.1	25.7	–	–	–	–	–	–	–	–	–	–	–
CCOC(=O)N[C@@H]1CC[C@@H]2[C@@H](C1)C[C@H]1C(=O)O[C@H](C)[C@H]1[C@H]2/C=C/c1ccc(-c2cccc(F)c2)cn1	–	–	–	–	–	–	–	–	–	–	–	114	115	122	128	127	121	120	131	127	142	79	125	112	122	109	115	118	133	129	131	125	76.8
CCOC(=O)[C@@H](N)CCC(=O)N[C@@H](CSCc1ccccc1)C(=O)N[C@@H](C(=O)OCC)c1ccccc1	–	–	–	–	–	–	–	–	–	–	–	–	–	–	–	–	–	–	–	–	–	–	128	116	123	130	133	136	121	133	137	139	98.9
O=[S+]([O-])(NCCNC/C=C/c1ccc(Br)cc1)c1cccc2cnccc12	110	114	109	81.5	101	105	104	97.5	95.4	79.3	69.5	98.4	88.6	92.8	105	91.3	97.6	96.1	98.8	84	87.5	85.6	103	100	90.7	78.4	97.6	89.9	89.1	85.3	89.7	74.3	81.7
C1CN\2C[C@@H](\N=C2S1)C3=CC=CC=C3	101	98.4	103	96.9	104	114	102	94.8	91.3	97.7	60.3	87.9	88.6	90.1	90.2	104	88.5	89.5	90.8	95.8	91	103	87.6	88.8	85.3	90.5	93.3	88.5	86.8	99.9	84	93	91.7
O=C(NCC1CCOCC1)c1cnc(Nc2ccc(Cl)cc2Cl)nc1C(F)(F)F	101	121	121	114	126	117	122	114	131	141	127	96.5	112	116	121	116	117	117	126	127	131	124	109	129	116	122	131	121	122	116	120	134	131
